The source of these data is ChEMBL document CHEMBL1201862, “PubChem BioAssay data set” (2004).

Assay [1] deals with T1, Replicative DNA helicase DnaB (Mycobacterium tuberculosis, UniProt P9WMR3).
T1 sequence (P9WMR3 whole entry): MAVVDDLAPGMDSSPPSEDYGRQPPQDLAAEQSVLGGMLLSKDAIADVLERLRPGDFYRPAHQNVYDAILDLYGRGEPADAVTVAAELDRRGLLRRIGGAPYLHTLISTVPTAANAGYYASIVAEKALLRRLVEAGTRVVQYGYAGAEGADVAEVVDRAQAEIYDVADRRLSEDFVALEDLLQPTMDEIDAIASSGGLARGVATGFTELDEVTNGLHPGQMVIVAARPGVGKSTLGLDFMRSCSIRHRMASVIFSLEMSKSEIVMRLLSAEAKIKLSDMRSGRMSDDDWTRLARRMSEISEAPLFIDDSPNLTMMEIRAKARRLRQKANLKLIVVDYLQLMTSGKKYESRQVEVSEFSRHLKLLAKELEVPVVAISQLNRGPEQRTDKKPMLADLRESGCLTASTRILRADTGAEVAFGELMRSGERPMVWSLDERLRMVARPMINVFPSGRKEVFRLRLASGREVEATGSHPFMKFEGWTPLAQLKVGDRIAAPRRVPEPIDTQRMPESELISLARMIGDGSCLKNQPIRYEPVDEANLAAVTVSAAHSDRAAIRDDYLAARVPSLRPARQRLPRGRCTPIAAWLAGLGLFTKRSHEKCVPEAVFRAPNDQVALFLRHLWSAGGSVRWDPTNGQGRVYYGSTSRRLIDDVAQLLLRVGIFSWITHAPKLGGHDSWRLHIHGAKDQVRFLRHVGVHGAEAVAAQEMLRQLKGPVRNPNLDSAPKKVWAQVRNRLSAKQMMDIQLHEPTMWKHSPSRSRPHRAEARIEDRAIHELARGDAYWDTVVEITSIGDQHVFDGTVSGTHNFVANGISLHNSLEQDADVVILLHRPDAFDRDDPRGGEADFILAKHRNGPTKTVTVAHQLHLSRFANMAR
Description: DnaB intein splicing inhibitors, dose response, biochemical, cell-free fluorescence (AID 449749). The class given is functional.

Another assay deals with T2, Protein RecA (Mycobacterium tuberculosis, UniProt P9WHJ3).
T2 sequence (P9WHJ3 whole entry): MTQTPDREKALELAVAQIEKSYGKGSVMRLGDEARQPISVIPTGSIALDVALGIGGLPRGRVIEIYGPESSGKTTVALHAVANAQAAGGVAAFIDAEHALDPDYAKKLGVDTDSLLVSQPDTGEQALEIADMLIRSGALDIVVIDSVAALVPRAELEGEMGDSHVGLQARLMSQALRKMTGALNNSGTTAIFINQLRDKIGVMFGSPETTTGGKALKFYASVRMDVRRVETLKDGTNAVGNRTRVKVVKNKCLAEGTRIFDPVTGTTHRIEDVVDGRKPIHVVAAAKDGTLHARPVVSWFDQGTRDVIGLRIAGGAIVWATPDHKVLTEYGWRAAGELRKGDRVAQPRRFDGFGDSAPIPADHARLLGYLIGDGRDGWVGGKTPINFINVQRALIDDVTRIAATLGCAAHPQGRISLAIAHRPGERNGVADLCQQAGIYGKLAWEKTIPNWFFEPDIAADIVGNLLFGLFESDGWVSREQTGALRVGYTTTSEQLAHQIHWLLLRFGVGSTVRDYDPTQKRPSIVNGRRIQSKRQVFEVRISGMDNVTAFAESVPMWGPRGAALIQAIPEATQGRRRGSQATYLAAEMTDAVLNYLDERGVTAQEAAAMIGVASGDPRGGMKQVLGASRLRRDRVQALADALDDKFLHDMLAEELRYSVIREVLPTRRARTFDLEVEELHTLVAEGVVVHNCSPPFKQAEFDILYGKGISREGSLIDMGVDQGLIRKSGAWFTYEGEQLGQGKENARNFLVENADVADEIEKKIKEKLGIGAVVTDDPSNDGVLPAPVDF
Description: Fluorescence Cell-Free Homogeneous Dose Retest to Identify Inhibitors of RecA-Intein Splicing Activity. [Related pubchem assays (depositor defined):AID2097, AID2223, AID489010, AID492950]. It is filed as functional.

For assay [2], the target named is T3, Apoptotic protease-activating factor 1 (Homo sapiens, UniProt O14727).
T3 sequence (O14727 whole entry): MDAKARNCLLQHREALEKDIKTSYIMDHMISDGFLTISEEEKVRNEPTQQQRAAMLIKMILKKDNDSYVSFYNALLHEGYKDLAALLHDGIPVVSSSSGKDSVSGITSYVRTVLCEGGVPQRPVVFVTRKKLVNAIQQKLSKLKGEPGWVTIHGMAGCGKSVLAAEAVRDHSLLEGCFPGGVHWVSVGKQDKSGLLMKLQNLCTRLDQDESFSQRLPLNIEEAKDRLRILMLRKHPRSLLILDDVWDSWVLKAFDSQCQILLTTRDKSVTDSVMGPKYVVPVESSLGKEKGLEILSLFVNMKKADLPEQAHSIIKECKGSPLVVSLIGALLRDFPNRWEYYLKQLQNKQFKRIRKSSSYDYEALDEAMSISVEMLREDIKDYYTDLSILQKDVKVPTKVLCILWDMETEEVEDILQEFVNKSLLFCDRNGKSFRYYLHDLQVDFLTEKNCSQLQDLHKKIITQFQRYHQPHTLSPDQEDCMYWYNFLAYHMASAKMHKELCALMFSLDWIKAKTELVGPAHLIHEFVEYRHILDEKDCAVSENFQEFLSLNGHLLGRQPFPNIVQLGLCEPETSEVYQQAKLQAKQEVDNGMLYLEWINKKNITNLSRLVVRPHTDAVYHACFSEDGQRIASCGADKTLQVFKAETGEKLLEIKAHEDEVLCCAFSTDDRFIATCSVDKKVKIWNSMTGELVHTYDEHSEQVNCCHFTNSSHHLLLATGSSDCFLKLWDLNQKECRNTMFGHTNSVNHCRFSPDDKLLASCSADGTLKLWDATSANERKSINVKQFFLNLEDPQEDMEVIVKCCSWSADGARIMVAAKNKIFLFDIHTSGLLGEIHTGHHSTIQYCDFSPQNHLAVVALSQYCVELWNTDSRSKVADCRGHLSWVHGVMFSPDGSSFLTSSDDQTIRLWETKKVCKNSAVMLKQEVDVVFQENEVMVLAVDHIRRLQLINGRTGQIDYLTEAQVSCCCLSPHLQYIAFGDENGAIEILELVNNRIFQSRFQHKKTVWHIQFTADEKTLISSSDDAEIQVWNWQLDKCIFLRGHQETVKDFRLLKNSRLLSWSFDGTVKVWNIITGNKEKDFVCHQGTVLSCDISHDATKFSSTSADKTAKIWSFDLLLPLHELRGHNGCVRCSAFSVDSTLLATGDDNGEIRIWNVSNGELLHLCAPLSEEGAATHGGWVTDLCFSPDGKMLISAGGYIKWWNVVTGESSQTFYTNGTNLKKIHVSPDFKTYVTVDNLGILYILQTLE
It is filed as functional.

Assay [3] concerns the target Dual specificity protein phosphatase 6 (Rattus norvegicus, UniProt Q64346). Description: inhibition of rat DUSP6 enzyme activity – biochemical, in vitro, primary screen (AID 425).
For assay [4], the target named is Alkaline phosphatase, tissue-nonspecific isozyme (Homo sapiens, UniProt P05186).

The source made the active and inactive calls. Where only a bound is given, the exact number is not on record here.

Alkaline phosphatase, tissue-nonspecific isozyme, sequence (P05186 whole entry): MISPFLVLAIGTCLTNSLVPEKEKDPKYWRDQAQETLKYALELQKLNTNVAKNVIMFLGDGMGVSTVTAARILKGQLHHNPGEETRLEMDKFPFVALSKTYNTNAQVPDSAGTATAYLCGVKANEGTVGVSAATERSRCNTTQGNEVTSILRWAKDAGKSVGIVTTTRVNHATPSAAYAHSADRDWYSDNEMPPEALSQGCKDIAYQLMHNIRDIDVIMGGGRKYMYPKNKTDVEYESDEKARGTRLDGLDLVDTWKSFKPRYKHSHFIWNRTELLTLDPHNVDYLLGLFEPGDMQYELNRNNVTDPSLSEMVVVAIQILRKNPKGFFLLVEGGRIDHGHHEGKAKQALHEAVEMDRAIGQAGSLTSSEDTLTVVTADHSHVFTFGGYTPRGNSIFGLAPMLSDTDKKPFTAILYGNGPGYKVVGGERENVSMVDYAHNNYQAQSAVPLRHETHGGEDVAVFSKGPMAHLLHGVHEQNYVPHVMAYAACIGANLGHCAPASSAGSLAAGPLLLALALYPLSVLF
Dual specificity protein phosphatase 6, sequence (Q64346 whole entry): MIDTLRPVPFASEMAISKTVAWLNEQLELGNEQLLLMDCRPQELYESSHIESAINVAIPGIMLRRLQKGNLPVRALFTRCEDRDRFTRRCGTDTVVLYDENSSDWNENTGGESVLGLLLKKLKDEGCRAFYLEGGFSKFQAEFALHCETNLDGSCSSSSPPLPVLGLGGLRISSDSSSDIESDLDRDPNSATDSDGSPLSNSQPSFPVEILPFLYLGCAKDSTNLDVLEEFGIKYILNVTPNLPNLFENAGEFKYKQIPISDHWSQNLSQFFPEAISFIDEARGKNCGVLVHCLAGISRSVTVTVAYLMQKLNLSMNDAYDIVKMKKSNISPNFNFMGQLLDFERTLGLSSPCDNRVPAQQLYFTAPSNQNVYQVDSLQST

For the compound `CCCCCCCCCCOC(=O)C[n+]1c(COc2ccccc2C)n(C)c2ccccc21`, the half-maximal activity concentration (AC50) in assay [1] is 3.01 µM (active). Also, at Protein RecA, the EC50 is 7.26 µM (active). Besides, in assay [2], the half-maximal inhibitory concentration (IC50) was 8.53 µM (active).

As to `Oc1nc(Nc2ccccc2)cc2ccccc12`, the AC50 in assay [1] is > 380 µM (inactive). Moreover, the concentration giving a half-maximal response (EC50) on Protein RecA is 1.9 µM (active). In addition, the figures for the IC50 in assay [3] and in assay [2] were > 100 µM (not active) and 3.31 µM (active), respectively.

For `COc1cc(OC)c(-c2c3cc(O)c(=O)cc-3oc3cc(O)c(O)cc23)cc1OC`, in assay [4], the EC50 is recorded as > 100 µM (not active).

As a reminder, the AC50 is the concentration giving half of the maximal activity seen. By EC50 is commonly meant the concentration needed to bring the measured effect to its halfway point. One may read the IC50 as the midpoint of a concentration-inhibition curve.
